According to patent US8278267B2 (Amylin Pharmaceuticals, LLC, priority 2005, dated 2012):

What was measured:
[1] = e.g., provoking marked hyperlactemia followed by hyperglycemia; cited from earlier work
[2] = Adsorption onto glass container in liquid form; format: physicochemical
[3] = Pramlintide on satiation and binge eating (Binge Eating Scale), single-blind placebo-controlled study in obese subjects; format: in vivo, human
Experimental: The ability of the amylin agonist pramlintide to control or influence eating behavior was examined in human subjects. For the assessment, 24 hour-food intake (FI, ad-libitum meals), weight, feelings of hunger and fullness, and binge-eating (Binge Eating Scale, BES) were measured in a single-blind, placebo-controlled study. Obese subjects without eating disorders (50/50% female/male; BMI 35.61±3.98 kg/m^2, mean±SD) were randomized to six weeks of treatment with pramlintide or placebo. Pramlintide (180 μg) was administered subcutaneously three times per day (TID) prior to meals for 6 weeks and no lifestyle intervention was provided (TID evaluable N=59, placebo evaluable N=25). […] A follow-up evaluation of the subjects was performed four weeks after cessation of the treatment. In addition to the measurement of food intake and weight, subjects were also assessed for the feelings of hunger and fullness over a 12-hour observation period on the day before treatment, the first day of treatment, and on Day 43. During the study, subjects were categorized by binge-eating severity as mild, moderate, or severe based on total BES scores.

[4] = human trials; cited from earlier work
[5] = Pramlintide on weight and anthropometric parameters, 16-week double-blind placebo-controlled study in obese subjects; format: in vivo, human
Experimental: In a randomized, double-blind, placebo-controlled study, changes in body weight and anthropometric parameters, as well as indicators of glycemic control (e.g., HbA1c), serum lipids and glucose tolerance, were assessed in response to pramlintide administration to obese (BMI≧30 kg/m^2 to ≦50 kg/m^2) non-diabetic individuals and obese individuals with non-insulin treated type 2 diabetes mellitus.

[6] = Combination therapy amylin + sibutramine in DIO prone rats; format: in vivo, rat; conditions: two weeks; for change in body weight (vehicle-corrected): amylin 100 μg/kg/day and/or sibutramine 3 mg/kg/day by mini-pumps; for fat mass / lean (protein) mass: amylin 100 μg/kg/day and/or sibutramine 3 mg/kg/day
Experimental: In-bred DIO prone rats were obtained from Charles Rivers Labs. These rats were developed from a line of Crl:CD®(SD)BR rats that are prone to become obese on a diet relatively high in fat and energy (Levin, 1997). The rats were housed individually in shoebox cages at 22° C. in a 12/12-hour light dark cycle. […] At the end of the fattening period they typically have a mean body weight of 500 g. Rats were then divided into treatment groups and implanted with two subcutaneous mini-pumps (Durect Corp).

[7] = cited from earlier work
[8] = Effect of amylin on sucrose food preference, sugar withdrawal and restraint stress; format: in vivo, rat
Experimental: The ability of amylin to modify food preference was examined in an animal model. Male, Sprague-Dawley® rats were submitted to a sugar withdrawal paradigm and observed for effects of stress on sugar intake. […] All rats were provided with ad libitum access to standard chow, water, and a 30% sucrose drink. Subsequently, the sucrose drink was removed and half of the rats were subjected, daily, to 3 h of mild restraint stress for 3 successive days. After 3 days, sucrose was provided and its daily average consumption was measured over 4 days. Chow intake was also measured over the 3 days of withdrawal and stress and over the following 4 days when sucrose was re-introduced. No restraint was applied during the 4 days of sucrose re-introduction. Results of this assay are shown in FIG. 1(A-D) where * is P<0.05 by ANOVA and Fisher LSD post-hoc analyses.

[9] = Effect of amylin on high fat food preference, 11-week osmotic pump treatment; format: in vivo, rat
Experimental: The ability of amylin to modify food preference was examined in an animal model. […] Animals had access to both low fat chow (6% fat kcal, 54% cornstarch kcal; #7012, Harlan Teklad, Madison, Wis.) and high fat chow (“palatable chow”) (58% fat kcal and 26% sucrose kcal; #D12311, Research Diets, New Brunswick, N.J.). Food intake and body weight were measured weekly. Just prior to treatment, and at the end of treatment, the amount of fat and lean tissue (expressed as g of tissue per 100 g of body weight) was measured via MRI (Echo MRI for rats, EchoMRI, Houston, Tex.).
Energy expenditure was assessed using an Oxymax animal monitoring system (Columbus Instruments, Columbus, Ohio) to measure oxygen consumption and carbon dioxide generation over time. From these measurements, heat (in kcal) was calculated and energy expenditure assessed.

[10] = Effect of amylin on body composition in DIO prone rats, 14 days of treatment then washout; format: in vivo, rat
Experimental: Diet-induced obesity (DIO) in the in the Sprague-Dawley rat is a valuable model for the study of obesity and regulation of energy homeostasis. […] All rats were housed individually in shoebox cages at 22° C. in a 12/12-hour light dark cycle. Amylin was administered by subcutaneous osmotic mini-pump (Durect Corp, Calif.). […] On day 14, mini-pumps were removed and replaced with pumps containing vehicle. For body composition, rats were scanned in a specialized rodent NMR machine (Echo Medical Systems) prior to drug treatment, and at the conclusion of the experiment, which enabled the calculation of percent changes in fat and lean composition (e.g., % body fat after treatment−% body fat at baseline=change in % body fat).

[11] = CSI (N = 47), Baseline (Day −1)
[12] = TID (N = 59), Baseline (Day −1)
[13] = pramlintide 180 μg s.c. TID, after 6 weeks
[14] = 16 weeks, least squares mean±SE
[15] = after 16 weeks, evaluable population
[16] = at 11 weeks, compared to controls
[17] = day 28, after amylin days 1-14 and vehicle days 15-28
[18] = rat amylin 100 μg/kg/d s.c. mini-pump, days 2-14, vs vehicle controls

## des-^1Lys-h-amylin (CNTATCATQRLANFLVHSSNNFGAILSSTNVGSNTY)
[1]
  amylin activity in vivo: show amylin activity in vivo

## des-^1Lys^18Arg^25,28Pro-h-amylin (CNTATCATQRLANFLVRSSNNFGPILPSTNVGSNTY)
[1]
  amylin activity in vivo: show amylin activity in vivo

## CC[C@H](C)[C@H](NC(=O)[C@@H]1CCCN1C(=O)CNC(=O)[C@H](Cc1ccccc1)NC(=O)[C@H](CC(N)=O)NC(=O)[C@H](CC(N)=O)NC(=O)[C@H](CO)NC(=O)[C@H](CO)NC(=O)[C@H](Cc1c[nH]cn1)NC(=O)[C@@H](NC(=O)[C@H](CC(C)C)NC(=O)[C@H](Cc1ccccc1)NC(=O)[C@H](CC(N)=O)NC(=O)[C@H](C)NC(=O)[C@H](CC(C)C)NC(=O)[C@H](CCCNC(=N)N)NC(=O)[C@H](CCC(N)=O)NC(=O)[C@@H](NC(=O)[C@H](C)NC(=O)[C@@H]1CSSC[C@H](NC(=O)[C@@H](N)CCCCN)C(=O)N[C@@H](CC(N)=O)C(=O)N[C@@H]([C@@H](C)O)C(=O)N[C@@H](C)C(=O)N[C@@H]([C@@H](C)O)C(=O)N1)[C@@H](C)O)C(C)C)C(=O)N[C@@H](CC(C)C)C(=O)N1CCC[C@H]1C(=O)N1CCC[C@H]1C(=O)N[C@H](C(=O)N[C@@H](CC(N)=O)C(=O)N[C@H](C(=O)NCC(=O)N[C@@H](CO)C(=O)N[C@@H](CC(N)=O)C(=O)N[C@H](C(=O)N[C@@H](Cc1ccc(O)cc1)C(N)=O)[C@@H](C)O)C(C)C)[C@@H](C)O [Pramlintide, ^25,28,29Pro-h-amylin]
[2]
  tendency to adsorb onto the glass: does not have a tendency to adsorb onto the glass
[3]; CSI 50 μg/h, Day 43
  reduction of mean total caloric intake compared with pooled placebo: ~7%
[3]; CSI 50 μg/h, first day of treatment
  reduction of mean total caloric intake compared with pooled placebo: approximately 22%
[3]; [11]
  subjects with total BES score >17 to <27 (Moderate): (36.2) %
  subjects with total BES score ≦17 (Mild): (51.1) %
  subjects with total BES score ≧27 (Severe): (12.8) %
[3]; CSI (N = 47), Day 42
  subjects with total BES score >17 to <27 (Moderate): (17.0) %
  subjects with total BES score ≦17 (Mild): (74.5) %
  subjects with total BES score ≧27 (Severe): (8.5) %
[3]; CSI (N = 47), Day 72
  subjects with total BES score >17 to <27 (Moderate): (14.9) %
  subjects with total BES score ≦17 (Mild): (63.8) %
  subjects with total BES score ≧27 (Severe): (8.5) %
[3]; [12]
  subjects with total BES score >17 to <27 (Moderate): (23.7) %
  subjects with total BES score ≦17 (Mild): (64.4) %
  subjects with total BES score ≧27 (Severe): (8.5) %
[3]; TID (N = 59), Baseline (Day −1), listed as pramlintide
  subjects with total BES score ≦17 (Mild): 64.4%
[3]; TID (N = 59), Day 42
  subjects with total BES score >17 to <27 (Moderate): (11.9) %
  subjects with total BES score ≦17 (Mild): (83.1) %
  subjects with total BES score ≧27 (Severe): (5.1) %
[3]; TID (N = 59), Day 42, listed as pramlintide
  subjects with total BES score ≦17 (Mild): 83.1%
[3]; TID (N = 59), Day 72
  subjects with total BES score >17 to <27 (Moderate): (13.6) %
  subjects with total BES score ≦17 (Mild): (76.3) %
  subjects with total BES score ≧27 (Severe): (5.1) %
[3]; TID, Day 43
  reduction of mean total caloric intake compared with pooled placebo: ~15%
[3]; TID, first day of treatment
  reduction of mean total caloric intake compared with pooled placebo: approximately 17%
[3]; after 6 weeks
  placebo-corrected reduction from baseline in mean BES score: −45±13%
[3]; after 6 weeks, placebo […]
  proportion of subjects shifting to a lower binge-eating severity category: 24.6%
[3]; four weeks after cessation of treatment
  reductions from baseline in the total BES score after cessation: no longer statistically significant
[3]; [13]
  placebo-corrected reduction from baseline in 24-hour food intake: -489 ± 183 kcal
  placebo-corrected reduction from baseline in weight: −2.2±0.5%
[4]
  weight or weight gain: reduce weight or weight gain
[5]; [14]
  placebo-corrected reduction in hip circumference: 2.69±0.82 cm
  placebo-corrected reduction in waist circumference: 2.691±1.08 cm
[5]; Class I (BMI <35 kg/m^2), n 43, placebo 0%
  percentage of subjects achieving >5% reduction in baseline body weight: 39.5%
[5]; Class II (BMI ≧35 kg/m^2 to <40 kg/m^2), n 25, placebo 0%
  percentage of subjects achieving >5% reduction in baseline body weight: 28.0%
[5]; Class II (BMI ≧40 kg/m^2), n 29, placebo 5.0%
  percentage of subjects achieving >5% reduction in baseline body weight: 20.7%
[5]; [15]
  placebo-corrected mean weight loss: 3.52 kg
  placebo-corrected mean weight loss, of initial body weight: 3.6%
[5]; after 16 weeks, placebo 2%
  subjects who lost ≧5% of body weight: 31%

## CC(C)CC(N(C)C)C1(c2ccc(Cl)cc2)CCC1 (stereo not drawn) [sibutramine]
[6]
  change in body weight (vehicle-corrected): approximately 5%
  fat mass: Fat mass loss was also evident
  lean (protein) mass: relatively unchanged

## ^18Arg^25,28Pro-h-amylin (KCNTATCATQRLANFLVRSSNNFGPILPSTNVGSNTY)
[7]
  solubility and stability characteristics compared to human amylin: more desirable solubility and stability characteristics
[1]
  amylin activity in vivo: show amylin activity in vivo

## ^25Pro^26Val^28,29Pro-h-amylin (KCNTATCATQRLANFLVHSSNNFGPVLPPTNVGSNTY)
[7]
  solubility and stability characteristics compared to human amylin: more desirable solubility and stability characteristics

## ^28Pro-h-amylin (KCNTATCATQRLANFLVHSSNNFGAILPSTNVGSNTY)
[1]
  amylin activity in vivo: show amylin activity in vivo

## Rat amylin
[6]
  change in body weight (vehicle-corrected): approximately 5%
  fat mass: Fat mass loss was also evident
  lean (protein) mass: increased
[8]; rat amylin 300 μg/kg/d by osmotic pump, restraint-stressed rats, 4 days of sucrose re-introduction
  average sucrose to chow consumption ratio (as % of baseline): prevents the increase in the average sucrose to chow consumption ratio
[8]; rat amylin 300 μg/kg/d, stressed and non-stressed rats, vs vehicle treated controls
  sucrose intake: decreases sucrose intake in both stressed and non-stressed conditions
[8]; rat amylin 300 μg/kg/d, treatment group vs control group
  stress-induced decrease in chow intake and total kcals: less pronounced in the treatment group
[9]; [16]
  24 h energy expenditure, dark phase increase: 6.6%
  24 h energy expenditure, light phase increase: 9.7%
[9]; pre- vs post-treatment, MRI, vehicle 3.7±0.9
  fat mass, change in percent of total mass: −3.6±1.0%
[9]; pre- vs post-treatment, MRI, vehicle −0.53±0.21, not significant
  lean tissue, change in percent of total mass: 0.08±0.23%
[9]; rat amylin 300 μg/kg/d, 11 weeks, vehicle 4.3±0.6
  percent total calories from low fat chow (main effect): 12.2±3.2%
[9]; rat amylin 300 μg/kg/d, 11 weeks, vehicle 126±10
  body weight gain: 50 ± 11 g
[9]; rat amylin 300 μg/kg/d, 11 weeks, vehicle 271±42
  calories from low fat chow (main effect): 633 ± 145 kcal
[9]; rat amylin 300 μg/kg/d, 11 weeks, vehicle 6315±111, mean±SEM
  calories from high fat chow over 11 weeks (FIG. 2): 5309 ± 202 kcal
[10]; [17]
  percent of body fat: lower percent of body fat
  percent of lean body mass: higher percent of lean body mass
[10]; [18]
  body weight: significantly decreased
  cumulative food intake: significantly decreased
